Values joined by “and” are separate entries in the source; they are usually repeats but may differ in a detail not shown here. Identical values can stand only once.
Columns and labels:
[1] = cited from earlier work
[2] = Plasma pharmacokinetics, noncompartmental analysis
Procedure: (§2) Blood samples for PK analysis were collected predose and 0.5, 1, 2, 3, 4, 8, 12, and 24 h post dose on days 1 and 3 at the same time as ECG assessments. […] Noncompartmental analysis (WinNonlin™ version 5.2, Pharsight, Sunnyvale, California) was performed to determine the following PK parameters: C max, T max, minimum (trough) plasma concentration over a dosing interval (C min), and AUC calculated using a trapezoidal method. For moxifloxacin, the AUC from time 0 to the last measurable concentration sampling time was calculated (AUC0–tlast).

[3] = tested on: healthy volunteers; assay: Concentration–QT linear random-effects model; assay type: in vivo, human; conditions: for concentration versus QTcF slope: plasma concentration of the analyte after midostaurin dosing, day 3
Text: Baseline QTcF was included in the model as a covariate. […] This exploratory analysis was applied to both the change from the time-matched baseline and the change from time-averaged baseline.

[4] = human, in vivo
Procedure: as §2

[5] = tested on: healthy volunteers; assay: Adverse events and discontinuations; assay type: in vivo, human
Procedure: (§1) Electrocardiogram analysis was performed at a blinded central reading facility (ERT, East Bridgewater, NJ) in digital format, with paper tracings obtained and archived immediately on site. Vital signs were assessed daily. Clinical laboratory parameters were assessed at baseline and at the end of study. Self-reported adverse events were continuously recorded from the first study treatment (placebo, day −1) through the end of study on day 4.

[6] = tested on: healthy volunteers; assay: Thorough QT/QTc study: QTcF change from baseline on day 3 (12-lead ECG); assay type: in vivo, human
Text: This study was a phase I, randomized, double-blind, placebo- and active-controlled, 3-way, parallel-group study conducted at a single center in the United States and approved by the Arkansas Research Medical Testing, LLC, Institutional Review Board. The design followed the recommendations of the International Conference on Harmonisation of Technical Requirements for Registration of Pharmaceuticals for Human Use (ICH) E14 guideline on “The Clinical Evaluation of QT/QTc Interval Prolongation and Proarrhythmic Potential for Non-Antiarrhythmic Drugs” [19]. As such, the trial included a concurrent positive control group and addressed intrinsic variability by conducting multiple ECGs at baseline and during the study. The study was conducted according to the ethical principles of the Declaration of Helsinki, and written informed consent was obtained from each subject during screening.
The treatment regimen was selected to achieve maximal plasma exposure for QTc evaluation while minimizing the risks of excessive or prolonged exposure in healthy volunteers.
The baseline comparison was from day −1 to day 3 at matched time points.
The following hypothesis was tested to confirm that the study had sufficient assay sensitivity: [drawing 3] [drawing 4] where μmoxi(t) was the mean QTcF change from baseline observed following moxifloxacin 400 mg at time point t. If the null hypothesis was rejected, the study had sufficient sensitivity. The Simes method was used for the protection of an experiment-wise 5% type I error [22, 23]. With the Simes method, the original P values corresponding to 0.5, 1, 2, 3, and 4 h post baseline are ordered increasingly, that is, P 1 ≤ P 2 ≤ P 3 ≤ P 4 ≤ P 5. After the Simes correction, the P values were 5P 1, 5P 2/2, 5P 3/3, 5P 4/4, and P 5 respectively. If any of the 5 adjusted P values were <.05, assay sensitivity was claimed. Only the participants who completed all scheduled doses of study medication from day 1 to day 3 and had at least 1 ECG on day −1 (baseline) and at least 1 ECG on day 3 (time-matched day 3 data for the time-matched analysis) were included in the assay sensitivity test.
Electrocardiogram measurements at each time point were calculated as an average of 3 separate ECG extractions or replicates. (Each extraction was the mean of 3 beats.) If fewer than 3 measurements were available, the available samples were averaged (i.e., a minimum of 1 measure was required). For each subject, the time-matched baseline value was subtracted from the QT/QTc intervals to determine the change from baseline in QT/QTc intervals for that subject. The 2 null hypotheses described above were tested in a linear mixed-effect model with a compound symmetry covariance structure. The model included the baseline measure as covariate and treatment, time, and the treatment-by-time interaction as fixed effects, where time was a categorical variable and subject was a random effect.
The time-matched analysis was conducted on the QTcF change from the time-matched baseline as recommended by the ICH E14 guideline. Although modeling change from the time-matched baseline was the primary analysis, the change from the time-averaged baseline was also analyzed using the same model. For the averaged baseline, each triplicate ECG collection was averaged first, and then the averaged baseline was calculated based on all the averaged triplicate ECG and unscheduled ECGs.
as §1, with “Standard triplicate 12-lead ECGs were obtained at 9 time points over 24 h at […] and at 2 time points on day 1. Electrocardiogram” for “Electrocardiogram”

[7] = tested on: QTcF interval; conditions: cited from earlier work
[8] = tested on: healthy volunteers; assay: Outlier analysis of QTc and other ECG parameters, ECG morphology; assay type: in vivo, human; conditions: for QTcB >30 ms, time-matched change from baseline, participants: text: 30- to 60-ms category
Procedure: Outlier analysis for QTc was also exploratory because this study was not powered to detect individuals with genetic sensitivity to potential QT-prolonging drugs. The nonspecific outlier criterion was a change from baseline in QTc interval of 30–60 ms.
as §1, with “Standard triplicate 12-lead ECGs were obtained at 9 time points over 24 h at […] and at 2 time points on day 1. Electrocardiogram” for “Electrocardiogram”

[9] = tested on: QT interval; conditions: ref 16 (AC220), 17 (MLN518), 18 (sorafenib); cited from earlier work
[10] = moxifloxacin 400 mg, 1 h post dose on day 3

CO[C@@H]1[C@H](N(C)C(=O)c2ccccc2)C[C@H]2O[C@]1(C)n1c3ccccc3c3c4c(c5c6ccccc6n2c5c31)C(=O)N[C@H]4O [CGP52421]
concentration at steady state relative to midostaurin and CGP62221 ([1]; daily oral dosing of midostaurin, plasma): approximately seven
half-life ([1]; human participants): up to 1 month
treatment needed to reach the steady state ([1]; midostaurin dosing): 21 to 28 days
Tmax ([2]; human, plasma, oral, 75 mg, time of peak concentrations post dose, midostaurin dosing, days 1 and 3): 3 to 4 h
AUC(0-t) ([2]; human, plasma, po, 75 mg): 3510 ng·h/mL
Cmax ([2]; human, plasma, po, 75 mg, mean (SD), Day 1 (single dose), midostaurin 75 mg oral, plasma): 384 ng/mL
Cmax ([2]; human, plasma, po, 75 mg, mean (SD), Day 3 (twice daily), midostaurin 75 mg oral, plasma): 1250 ng/mL
Tmax ([2]; human, plasma, po, 75 mg, Tmax, median (range), Day 1 (single dose), midostaurin 75 mg oral, plasma): 4 h
Tmax ([2]; human, plasma, po, 75 mg, Tmax, median (range), Day 3 (twice daily), midostaurin 75 mg oral, plasma): 3.1 h
concentration versus QTcF slope [3]: 0.2
concentration versus QTcF slope ([3]; listed as CPG52421): either negative or not statistically significant

CN(C(=O)c1ccccc1)[C@@H]1C[C@H]2O[C@@](C)([C@@H]1O)n1c3ccccc3c3c4c(c5c6ccccc6n2c5c31)C(=O)NC4 [CGP62221]
time of peak concentrations post dose [4]: 3 to 4 h
AUC0-12h, mean (SD) ([4]; po, 75 mg): 7848.2 (1579.9) ng * hour/mL
AUC0-24h, mean (SD) ([4]; po, 75 mg): 36 486.5 (9769.7) ng × hour/mL

COc1c(N2C[C@@H]3CCCN[C@@H]3C2)c(F)cc2c(=O)c(C(=O)O)cn(C3CC3)c12 [Moxifloxacin, reference compound]
Cmax previously reported ([1]; moxifloxacin): 2830 ng/mL
Discontinued, main cause Adverse event(s) ([5]; randomized set): 0 (0.0) no. (%)
Discontinued, main cause Death ([5]; randomized set): 0 (0.0) no. (%)
Abdominal pain ([5]; safety set, all grade 1/2): 0 (0.0) no. (%)
Arthralgia ([5]; safety set, all grade 1/2): 0 (0.0) no. (%)
Diarrhea ([5]; safety set, all grade 1/2): 1 (2.3) no. (%)
Dizziness ([5]; safety set, all grade 1/2): 1 (2.3) no. (%)
Dry mouth ([5]; safety set, all grade 1/2): 0 (0.0) no. (%)
Dysmenorrhea ([5]; safety set, all grade 1/2): 0 (0.0) no. (%)
Dyspepsia ([5]; safety set, all grade 1/2): 1 (2.3) no. (%)
Eructation ([5]; safety set, all grade 1/2): 0 (0.0) no. (%)
Flatulence ([5]; safety set, all grade 1/2): 1 (2.3) no. (%)
Flushing ([5]; safety set, all grade 1/2): 0 (0.0) no. (%)
Headache ([5]; safety set, all grade 1/2): 4 (9.1) no. (%)
Hiccups ([5]; safety set, all grade 1/2): 0 (0.0) no. (%)
Hot flushes ([5]; safety set, all grade 1/2): 0 (0.0) no. (%)
Nausea ([5]; safety set, all grade 1/2): 5 (11.4) no. (%)
Pollakiuria ([5]; safety set, all grade 1/2): 1 (2.3) no. (%)
Rash ([5]; safety set, all grade 1/2): 1 (2.3) no. (%)
Salivary hypersecretion ([5]; safety set, all grade 1/2): 0 (0.0) no. (%)
Sexually transmitted disease ([5]; safety set, all grade 1/2): 0 (0.0) no. (%)
Vomiting ([5]; safety set, all grade 1/2): 1 (2.3) no. (%)
Participants with adverse events ([5]; safety set, all grade 1/2, 4-day evaluation period): 9 (20.5) no. (%)
Tachycardia ([5]; safety set, grade 1, midostaurin-arm cases occurred during placebo run-in (day −1)): 0 (0.0) no. (%)
upper limit of the 95% CI of QTcF prolongation from time-matched baseline ([6]; moxifloxacin 400 mg, 1 h post dose): 14.9 ms
lower bound of 95% CI, QTcF change from time-averaged baseline compared with placebo [6, 10]: 7.6 ms
lower bound of the 1-sided 95% CI of QTcF prolongation from time-matched baseline [6, 10]: 6.4 ms and > 5 ms
maximum mean QTcF change from time-averaged baseline compared with placebo [6, 10]: 10.2 ms
maximum mean QTcF prolongation from time-matched baseline compared with placebo ([6]; moxifloxacin single 400-mg dose, 1 h post dose on day 3): 10.7 ms
mean slope estimates, concentration–QTc ([7]; 5 other thorough QTc studies): 2.5 ms per μg/mL and 2.4 ms per μg/mL and 3.3 ms per μg/mL and 3.5 ms per μg/mL and 4.3 ms per μg/mL
effect on QTc intervals [7]: prolong QTc intervals in a dose-dependent manner
expected effect on the QTcF interval ([7]; previous studies): 8 to 13 ms
Cmax ([2]; human, plasma, oral, 400 mg, geometric mean, moxifloxacin 400 mg overencapsulated, day 3): 2500 ng/mL
Cmax ([2]; human, plasma, oral, 400 mg, mean, moxifloxacin 400 mg overencapsulated, day 3): 2540 ng/mL
Cmax ([2]; human, plasma, oral, 400 mg, median, moxifloxacin 400 mg overencapsulated, day 3): 2460 ng/mL
Tmax ([2]; human, plasma, oral, 400 mg, Tmax, median, moxifloxacin 400 mg overencapsulated, day 3): 2.1 h
Cmax, mean ([2]; moxifloxacin 400 mg overencapsulated, day 3): 2544 ng/mL
new U-wave abnormalities ([8]; 12-lead ECG): 1 case
new post baseline T-wave abnormalities ([8]; 12-lead ECG): 4 participants
PR increase ≥25% and resultant PR >200 ms, participants ([8]; safety set): 0 no. (%)
QRS increase ≥25% and resultant QRS >100 ms, participants ([8]; safety set): 0 no. (%)
QTcB >60 ms, time-matched change from baseline, participants ([8]; safety set): 0 no. (%)
QTcF >30 ms, time-matched change from baseline, participants ([8]; safety set): 0 no. (%)
QTcF >60 ms, time-matched change from baseline, participants ([8]; safety set): 0 no. (%)
QTcI >30 ms, time-matched change from baseline, participants ([8]; safety set): 0 no. (%)
QTcI >60 ms, time-matched change from baseline, participants ([8]; safety set): 0 no. (%)
RR decrease ≥25% and resultant RR <600 ms, participants ([8]; safety set): 0 no. (%)
RR increase ≥25% and resultant RR >1,200 ms, participants ([8]; safety set): 0 no. (%)
QTcB New >450 ms, participants ([8]; safety set, post baseline, text: between 450 and 480 ms): 1 (2.3%) no. (%)
QTcB >30 ms, time-matched change from baseline, participants ([8]; safety set): 7 (15.9) no. (%)
QTcB >30 ms, time-matched change from baseline, participants ([8]; safety set, listed as moxifloxacin): 7 (15.9%) no. (%)
slope of QT change from baseline with increasing plasma concentration ([3]; moxifloxacin, QT): 4.0
slope of QTcB change from baseline with increasing plasma concentration ([3]; moxifloxacin, QTcB): 2.6
slope of QTcF change from baseline with increasing plasma concentration ([3]; moxifloxacin, QTcF): 3.2 ms per μg/mL

CNC(=O)c1cc(Oc2ccc(NC(=O)Nc3ccc(Cl)c(C(F)(F)F)c3)cc2)ccn1 [sorafenib]
effect on QT interval in clinical trials [9]: induce prolongation of the QT interval
